Data reported in ChEMBL document CHEMBL2396528, “Synthesis of new conjugated coumarin-benzimidazole hybrids and their anticancer activity” (2013).

Tested on: MOLT-4
Experiment: Cytotoxicity against human MOLT4 cells assessed as growth inhibition at 10 uM after 48 hrs by SRB assay relative to control
Assay type: functional
Conditions: MOLT-4, 48 h, read-out: GI

Row | SMILES | inhibition of growth at 10 µM [%]
1 | CN1CCN(c2ccc3cc(-c4nc5ccccc5[nH]4)c(=O)oc3c2)CC1 | < 20

Tested on: SF-539
Experiment: Cytotoxicity against human SF539 cells assessed as growth inhibition at 10 uM after 48 hrs by SRB assay relative to control
Assay type: functional
Conditions: SF-539, 48 h, read-out: GI

Row | SMILES | inhibition of growth at 10 µM [%]
2 | CN1CCN(c2ccc3cc(-c4nc5ccccc5[nH]4)c(=O)oc3c2)CC1 | < 20

Tested on: OVCAR-4
Experiment: Cytotoxicity against human OVCAR4 cells assessed as growth inhibition at 10 uM after 48 hrs by SRB assay relative to control
Assay type: functional
Conditions: OVCAR-4, 48 h, read-out: GI

Row | SMILES | inhibition of growth at 10 µM [%]
3 | CN1CCN(c2ccc3cc(-c4nc5ccccc5[nH]4)c(=O)oc3c2)CC1 | 29.8

Tested on: HCC 2998
Experiment: Cytotoxicity against human HCC2998 cells assessed as growth inhibition at 10 uM after 48 hrs by SRB assay relative to control
Assay type: functional
Conditions: HCC 2998, 48 h, read-out: GI

Row | SMILES | inhibition of growth at 10 µM [%]
4 | CN1CCN(c2ccc3cc(-c4nc5ccccc5[nH]4)c(=O)oc3c2)CC1 | < 20

Tested on: ACHN
Experiment: Cytotoxicity against human ACHN cells assessed as growth inhibition at 10 uM after 48 hrs by SRB assay relative to control
Assay type: functional
Conditions: read-out: GI

Row | SMILES | inhibition of growth at 10 µM [%]
5 | CN1CCN(c2ccc3cc(-c4nc5ccccc5[nH]4)c(=O)oc3c2)CC1 | < 20

Tested on: not listed separately
Experiment: Cytotoxicity against human NCI-ADR-RES cells assessed as growth inhibition at 10 uM after 48 hrs by SRB assay relative to control
Assay type: functional
Conditions: read-out: GI

Row | SMILES | inhibition of growth at 10 µM [%]
6 | CN1CCN(c2ccc3cc(-c4nc5ccccc5[nH]4)c(=O)oc3c2)CC1 | < 20

Tested on: CCRF-CEM
Experiment: Cytotoxicity against human CCRF-CEM cells assessed as growth inhibition at 10 uM after 48 hrs by SRB assay relative to control
Assay type: functional
Conditions: read-out: GI

Row | SMILES | inhibition of growth at 10 µM [%]
7 | CN1CCN(c2ccc3cc(-c4nc5ccccc5[nH]4)c(=O)oc3c2)CC1 | 26.5

Tested on: OVCAR-8
Experiment: Cytotoxicity against human OVCAR8 cells assessed as growth inhibition at 10 uM after 48 hrs by SRB assay relative to control
Assay type: functional
Conditions: OVCAR-8, 48 h, read-out: GI

Row | SMILES | inhibition of growth at 10 µM [%]
8 | CN1CCN(c2ccc3cc(-c4nc5ccccc5[nH]4)c(=O)oc3c2)CC1 | < 20

Tested on: A498
Experiment: Cytotoxicity against human A498 cells assessed as growth inhibition at 10 uM after 48 hrs by SRB assay relative to control
Assay type: functional
Conditions: A498, 48 h, read-out: GI

Row | SMILES | inhibition of growth at 10 µM [%]
9 | CN1CCN(c2ccc3cc(-c4nc5ccccc5[nH]4)c(=O)oc3c2)CC1 | < 20

Tested on: NCI-H23
Experiment: Cytotoxicity against human NCI-H23 cells assessed as growth inhibition at 10 uM after 48 hrs by SRB assay relative to control
Assay type: functional
Conditions: NCI-H23, 48 h, read-out: GI

Row | SMILES | inhibition of growth at 10 µM [%]
10 | CN1CCN(c2ccc3cc(-c4nc5ccccc5[nH]4)c(=O)oc3c2)CC1 | 25.5

Tested on: HCT-116
Experiment: Cytotoxicity against human HCT116 cells assessed as growth inhibition at 10 uM after 48 hrs by SRB assay relative to control
Assay type: functional
Conditions: HCT-116, 48 h, read-out: GI

Row | SMILES | inhibition of growth at 10 µM [%]
11 | CN1CCN(c2ccc3cc(-c4nc5ccccc5[nH]4)c(=O)oc3c2)CC1 | < 20

Tested on: UO-31
Experiment: Cytotoxicity against human UO31 cells assessed as growth inhibition at 10 uM after 48 hrs by SRB assay relative to control
Assay type: functional
Conditions: UO-31, 48 h, read-out: GI

Row | SMILES | inhibition of growth at 10 µM [%]
12 | CN1CCN(c2ccc3cc(-c4nc5ccccc5[nH]4)c(=O)oc3c2)CC1 | 34.6

Tested on: SW-620
Experiment: Cytotoxicity against human SW620 cells assessed as growth inhibition at 10 uM after 48 hrs by SRB assay relative to control
Assay type: functional
Conditions: SW-620, 48 h, read-out: GI

Row | SMILES | inhibition of growth at 10 µM [%]
13 | CN1CCN(c2ccc3cc(-c4nc5ccccc5[nH]4)c(=O)oc3c2)CC1 | < 20

Tested on: HOP-62
Experiment: Cytotoxicity against human HOP62 cells assessed as growth inhibition at 10 uM after 48 hrs by SRB assay relative to control
Assay type: functional
Conditions: HOP-62, 48 h, read-out: GI

Row | SMILES | inhibition of growth at 10 µM [%]
14 | CN1CCN(c2ccc3cc(-c4nc5ccccc5[nH]4)c(=O)oc3c2)CC1 | < 20

Tested on: PC-3
Experiment: Cytotoxicity against human PC3 cells assessed as growth inhibition at 10 uM after 48 hrs by SRB assay relative to control
Assay type: functional
Conditions: PC-3, 48 h, read-out: GI

Row | SMILES | inhibition of growth at 10 µM [%]
15 | CN1CCN(c2ccc3cc(-c4nc5ccccc5[nH]4)c(=O)oc3c2)CC1 | < 20

Tested on: DU-145
Experiment: Cytotoxicity against human DU145 cells assessed as growth inhibition at 10 uM after 48 hrs by SRB assay relative to control
Assay type: functional
Conditions: DU-145, 48 h, read-out: GI

Row | SMILES | inhibition of growth at 10 µM [%]
16 | CN1CCN(c2ccc3cc(-c4nc5ccccc5[nH]4)c(=O)oc3c2)CC1 | < 20

Tested on: Malme-3M
Experiment: Cytotoxicity against human MALME-3M cells assessed as growth inhibition at 10 uM after 48 hrs by SRB assay relative to control
Assay type: functional
Conditions: read-out: GI

Row | SMILES | inhibition of growth at 10 µM [%]
17 | CN1CCN(c2ccc3cc(-c4nc5ccccc5[nH]4)c(=O)oc3c2)CC1 | < 20

Tested on: SF-268
Experiment: Cytotoxicity against human SF268 cells assessed as growth inhibition at 10 uM after 48 hrs by SRB assay relative to control
Assay type: functional
Conditions: SF-268, 48 h, read-out: GI

Row | SMILES | inhibition of growth at 10 µM [%]
18 | CN1CCN(c2ccc3cc(-c4nc5ccccc5[nH]4)c(=O)oc3c2)CC1 | < 20

Tested on: SN12C
Experiment: Cytotoxicity against human SN12C cells assessed as growth inhibition at 10 uM after 48 hrs by SRB assay relative to control
Assay type: functional
Conditions: read-out: GI

Row | SMILES | inhibition of growth at 10 µM [%]
19 | CN1CCN(c2ccc3cc(-c4nc5ccccc5[nH]4)c(=O)oc3c2)CC1 | < 20

Tested on: M14
Experiment: Cytotoxicity against human M14 cells assessed as growth inhibition at 10 uM after 48 hrs by SRB assay relative to control
Assay type: functional
Conditions: M14, 48 h, read-out: GI

Row | SMILES | inhibition of growth at 10 µM [%]
20 | CN1CCN(c2ccc3cc(-c4nc5ccccc5[nH]4)c(=O)oc3c2)CC1 | < 20

Tested on: HCT-15
Experiment: Cytotoxicity against human HCT15 cells assessed as growth inhibition at 10 uM after 48 hrs by SRB assay relative to control
Assay type: functional
Conditions: HCT-15, 48 h, read-out: GI

Row | SMILES | inhibition of growth at 10 µM [%]
21 | CN1CCN(c2ccc3cc(-c4nc5ccccc5[nH]4)c(=O)oc3c2)CC1 | < 20

Tested on: MDA-MB-468
Experiment: Cytotoxicity against human MDA-MB-468 cells assessed as growth inhibition at 10 uM after 48 hrs by SRB assay relative to control
Assay type: functional
Conditions: MDA-MB-468, 48 h, read-out: GI

Row | SMILES | inhibition of growth at 10 µM [%]
22 | CN1CCN(c2ccc3cc(-c4nc5ccccc5[nH]4)c(=O)oc3c2)CC1 | 31.7

Tested on: SK-OV-3
Experiment: Cytotoxicity against human SKOV3 cells assessed as growth inhibition at 10 uM after 48 hrs by SRB assay relative to control
Assay type: functional
Conditions: SK-OV-3, 48 h, read-out: GI

Row | SMILES | inhibition of growth at 10 µM [%]
23 | CN1CCN(c2ccc3cc(-c4nc5ccccc5[nH]4)c(=O)oc3c2)CC1 | < 20

Tested on: HL-60(TB)
Experiment: Cytotoxicity against human HL-60(TB) cells assessed as growth inhibition at 10 uM after 48 hrs by SRB assay relative to control
Assay type: functional
Conditions: HL-60, 48 h, read-out: GI

Row | SMILES | inhibition of growth at 10 µM [%]
24 | CN1CCN(c2ccc3cc(-c4nc5ccccc5[nH]4)c(=O)oc3c2)CC1 | 27.1

Tested on: HOP-92
Experiment: Cytotoxicity against human HOP92 cells assessed as growth inhibition at 10 uM after 48 hrs by SRB assay relative to control
Assay type: functional
Conditions: HOP-92, 48 h, read-out: GI

Row | SMILES | inhibition of growth at 10 µM [%]
25 | CN1CCN(c2ccc3cc(-c4nc5ccccc5[nH]4)c(=O)oc3c2)CC1 | 41.1

Tested on: IGROV-1
Experiment: Cytotoxicity against human IGROV1 cells assessed as growth inhibition at 10 uM after 48 hrs by SRB assay relative to control
Assay type: functional
Conditions: IGROV-1, 48 h, read-out: GI

Row | SMILES | inhibition of growth at 10 µM [%]
26 | CN1CCN(c2ccc3cc(-c4nc5ccccc5[nH]4)c(=O)oc3c2)CC1 | 20.1

Tested on: MCF7
Experiment: Cytotoxicity against human MCF7 cells assessed as growth inhibition at 10 uM after 48 hrs by SRB assay relative to control
Assay type: functional
Conditions: MCF7, 48 h, read-out: GI

Row | SMILES | inhibition of growth at 10 µM [%]
27 | CN1CCN(c2ccc3cc(-c4nc5ccccc5[nH]4)c(=O)oc3c2)CC1 | 26.3

Tested on: Hs-578T
Experiment: Cytotoxicity against human Hs578T cells assessed as growth inhibition at 10 uM after 48 hrs by SRB assay relative to control
Assay type: functional
Conditions: read-out: GI

Row | SMILES | inhibition of growth at 10 µM [%]
28 | CN1CCN(c2ccc3cc(-c4nc5ccccc5[nH]4)c(=O)oc3c2)CC1 | < 20

Tested on: K562
Experiment: Cytotoxicity against human K562 cells assessed as growth inhibition at 10 uM after 48 hrs by SRB assay relative to control
Assay type: functional
Conditions: K562, 48 h, read-out: GI

Row | SMILES | inhibition of growth at 10 µM [%]
29 | CN1CCN(c2ccc3cc(-c4nc5ccccc5[nH]4)c(=O)oc3c2)CC1 | 56.4

Tested on: SNB-75
Experiment: Cytotoxicity against human SNB75 cells assessed as growth inhibition at 10 uM after 48 hrs by SRB assay relative to control
Assay type: functional
Conditions: SNB-75, 48 h, read-out: GI

Row | SMILES | inhibition of growth at 10 µM [%]
30 | CN1CCN(c2ccc3cc(-c4nc5ccccc5[nH]4)c(=O)oc3c2)CC1 | < 20

Tested on: U-251
Experiment: Cytotoxicity against human U251 cells assessed as growth inhibition at 10 uM after 48 hrs by SRB assay relative to control
Assay type: functional
Conditions: U-251, 48 h, read-out: GI

Row | SMILES | inhibition of growth at 10 µM [%]
31 | CN1CCN(c2ccc3cc(-c4nc5ccccc5[nH]4)c(=O)oc3c2)CC1 | < 20

Tested on: RPMI-8226
Experiment: Cytotoxicity against human RPMI8226 cells assessed as growth inhibition at 10 uM after 48 hrs by SRB assay relative to control
Assay type: functional
Conditions: RPMI-8226, 48 h, read-out: GI

Row | SMILES | inhibition of growth at 10 µM [%]
32 | CN1CCN(c2ccc3cc(-c4nc5ccccc5[nH]4)c(=O)oc3c2)CC1 | 35.4

Tested on: MDA-MB-231
Experiment: Cytotoxicity against human MDA-MB-231 cells assessed as growth inhibition at 10 uM after 48 hrs by SRB assay relative to control
Assay type: functional
Conditions: MDA-MB-231, 48 h, read-out: GI

Row | SMILES | inhibition of growth at 10 µM [%]
33 | CN1CCN(c2ccc3cc(-c4nc5ccccc5[nH]4)c(=O)oc3c2)CC1 | < 20

Tested on: NCI-H226
Experiment: Cytotoxicity against human NCI-H226 cells assessed as growth inhibition at 10 uM after 48 hrs by SRB assay relative to control
Assay type: functional
Conditions: NCI-H226, 48 h, read-out: GI

Row | SMILES | inhibition of growth at 10 µM [%]
34 | CN1CCN(c2ccc3cc(-c4nc5ccccc5[nH]4)c(=O)oc3c2)CC1 | < 20
